Laboratory results from ChEMBL document CHEMBL4706727, “Discovery of 2,4-1H-Imidazole Carboxamides as Potent and Selective TAK1 Inhibitors” (ACS Med Chem Lett, 2021).
Values after ≈ are worked out from the molar mass of the structure shown. Active and inactive are the calls of the source. The rule behind the calls is not given here.

Tests used:
[1] = biological target: TAK1/TAB1 (Homo sapiens, UniProt O43318); test: Inhibition of recombinant human full-length His-tagged TAK1-TAB1 fusion protein (437 to 504 residues) expressed in baculovirus expression system using fluorescein-MAP2K1 as substrate preincubated for 30 mins followed by substrate addition and measured after 60 mins in presence of ATP by lanthascreen TR-FRET assay
[2] = test system: HCT-15; test: Cytotoxicity against TNFalpha-induced human HCT-15 cells assessed as reduction in cell viability up to 10 uM preincubated for 2 hrs followed by TNFalpha stimulation and measured after 72 hrs by celltiter-glo assay; format: functional, cell-based; details: dose microM <=10, time 74.0 hrs
[3] = Half life in rat liver S9 fraction at 1 uM measured up to 60 mins in presence of NADPH by LC-MS analysis; format: ADME, subcellular
[4] = Apparent permeability across apical to basolateral side in human Caco-2 cells at 2 uM after 2 hrs by LC/MS-MS analysis; format: ADME, cell-based
[5] = Aqueous solubility of compound in pH 7.4 PBS buffer measured after 24 hrs by HPLC-UV analysis; format: physicochemical
[6] = Half life in human liver S9 fraction at 1 uM measured up to 60 mins in presence of NADPH by LC-MS analysis; format: ADME, subcellular
[7] = Apparent permeability across basolateral to apical side in human Caco-2 cells at 2 uM after 2 hrs by LC/MS-MS analysis; format: ADME, cell-based
[8] = Half life in CD-1 mouse liver S9 fraction at 1 uM measured up to 60 mins in presence of NADPH by LC-MS analysis; format: ADME, subcellular

TAK1/TAB1, sequence (Q15750 whole entry, the tested form may be a part): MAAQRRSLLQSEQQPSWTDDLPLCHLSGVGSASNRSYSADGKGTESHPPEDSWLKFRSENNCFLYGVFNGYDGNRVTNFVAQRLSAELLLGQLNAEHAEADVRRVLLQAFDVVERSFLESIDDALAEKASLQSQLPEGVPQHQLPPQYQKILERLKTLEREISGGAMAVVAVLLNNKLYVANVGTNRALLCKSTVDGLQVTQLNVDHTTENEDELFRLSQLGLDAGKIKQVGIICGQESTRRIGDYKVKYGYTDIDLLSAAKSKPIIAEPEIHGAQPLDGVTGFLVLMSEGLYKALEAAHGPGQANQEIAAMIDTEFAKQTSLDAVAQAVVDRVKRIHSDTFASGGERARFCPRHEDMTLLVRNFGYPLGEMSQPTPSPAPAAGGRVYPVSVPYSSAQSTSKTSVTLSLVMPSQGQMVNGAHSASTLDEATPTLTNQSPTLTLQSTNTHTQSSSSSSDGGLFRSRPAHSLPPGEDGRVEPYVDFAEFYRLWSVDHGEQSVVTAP
TAK1/TAB1, sequence (O43318 whole entry, the tested form may be a part): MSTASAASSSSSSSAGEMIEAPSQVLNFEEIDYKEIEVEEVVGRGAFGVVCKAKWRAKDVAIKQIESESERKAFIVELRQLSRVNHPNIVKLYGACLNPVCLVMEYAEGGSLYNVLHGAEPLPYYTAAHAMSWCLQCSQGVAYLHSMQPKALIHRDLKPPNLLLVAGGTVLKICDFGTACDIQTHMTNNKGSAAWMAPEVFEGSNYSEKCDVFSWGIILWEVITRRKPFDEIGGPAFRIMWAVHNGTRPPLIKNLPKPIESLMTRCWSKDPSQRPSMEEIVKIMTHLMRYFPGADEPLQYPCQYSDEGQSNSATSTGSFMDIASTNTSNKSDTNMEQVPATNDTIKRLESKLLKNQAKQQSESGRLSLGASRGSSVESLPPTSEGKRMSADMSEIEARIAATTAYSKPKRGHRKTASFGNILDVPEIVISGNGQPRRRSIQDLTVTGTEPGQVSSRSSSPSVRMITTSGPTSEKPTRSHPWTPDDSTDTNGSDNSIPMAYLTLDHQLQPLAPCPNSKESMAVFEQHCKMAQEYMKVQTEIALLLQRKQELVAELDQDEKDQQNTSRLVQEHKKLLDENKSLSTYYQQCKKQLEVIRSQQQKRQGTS

| SMILES | IC50 [1] [µM] | also measured |
| --- | --- | --- |
| CCNC(=O)c1cc(C(=O)N(CC(=O)NC)Cc2ccccc2OC(F)F)c[nH]1 | > 100 |  |
| CNC(=O)CN(Cc1ccccc1OC(F)F)C(=O)c1c[nH]c(C(=O)N2CC3CCCCC3C2)n1 (centres undefined) | 3.4 |  |
| CNC(=O)CN(Cc1ccccc1OC(F)F)C(=O)c1c[nH]c(C(=O)N2CCCCCC2)n1 | 2.9 |  |
| CNC(=O)CN(Cc1ccccc1OC(F)F)C(=O)c1c[nH]c(C(=O)N2CCC2)n1 | 2.6 |  |
| CNC(=O)CN(Cc1ccccc1OC(F)F)C(=O)c1c[nH]c(C(=O)N(C)C)c1 | 26 |  |
| CN(Cc1ccccc1OC(F)F)C(=O)c1c[nH]c(C(=O)N2CCCC2)c1 | 3.5 |  |
| CNC(=O)CN(Cc1ccc(OC)cc1OC(F)F)C(=O)c1c[nH]c(C(=O)N2CCCC2)n1 | > 10 |  |
| CNC(=O)CN(Cc1cccc(OC)c1OC(F)F)C(=O)c1c[nH]c(C(=O)N2CCCC2)n1 | > 10 |  |
| CCOc1ccccc1CN(CC(=O)NC)C(=O)c1c[nH]c(C(=O)N2CCCC2)c1 | 2.6 |  |
| CNC(=O)CN(Cc1c(F)cccc1OC(F)F)C(=O)c1c[nH]c(C(=O)N2CCCC2)n1 | > 10 |  |
| CNC(=O)CN(Cc1ccccc1OC)C(=O)c1c[nH]c(C(=O)N2CCCC2)c1 | 2.8 |  |
| CNC(=O)CN(Cc1ccccc1OC(F)F)C(=O)c1cc(C(=O)N2CCCC2)[nH]n1 | 59 |  |

The next molecules have a lower IC50 [1] than those just listed; values first:

| IC50 [1] [µM] | SMILES | also measured |
| --- | --- | --- |
| 1.8 | CNC(=O)CN(Cc1ccccc1OC(F)F)C(=O)c1c[nH]c(C(=O)N2CCCCC2)c1 |  |
| 0.3 | CNC(=O)[C@@H](C)N(Cc1ccccc1OC(F)F)C(=O)c1c[nH]c(C(=O)N2CCCC2)n1 |  |
| 0.01 | Nc1ncc(-c2cnn([C@H]3CC[C@H](O)CC3)c2)c2c(Cl)c(-c3cccc4nnsc34)oc12 |  |
| 0.3 | CNC(=O)CN(Cc1ccccc1OC(F)F)C(=O)c1c[nH]c(C(=O)N2Cc3ccccc3C2)n1 |  |
| 1.8 | CNC(=O)CN(Cc1cccc2[nH]ccc12)C(=O)c1c[nH]c(C(=O)N2CCCC2)c1 |  |
| 1 | CCC(C(=O)NC)N(Cc1ccccc1OC(F)F)C(=O)c1c[nH]c(C(=O)N2CCCC2)n1 (centres undefined) |  |
| 0.002 | CNC(=O)[C@@H](C)N(Cc1ccccc1OC(F)F)C(=O)c1c[nH]c(C(=O)N2Cc3ccc(C(N)=O)cc3C2)n1 | Activity [2]: inactive; half-life at 1 µM [3]: 19 min; Papp A→B at 2 h, 2 µM [4]: 0.1 ×10⁻⁶ cm/s; solubility at 24 h [5]: 5 µM (≈ 2.7 µg/mL); half-life at 1 µM [6]: 24 min; Papp B→A at 2 h, 2 µM [7]: 6 ×10⁻⁶ cm/s; half-life at 1 µM [8]: 29 min |
| 0.5 | CNC(=O)C(C)N(Cc1ccccc1OC(F)F)C(=O)c1c[nH]c(C(=O)N2CCCC2)n1 (centres undefined) |  |
| 0.9 | CNC(=O)CN(Cc1ccccc1OC(F)F)C(=O)c1c[nH]c(C(=O)N2CCC(C)C2)n1 (centres undefined) |  |
| 1.3 | CNC(=O)CN(Cc1ccccc1OC(F)F)C(=O)c1c[nH]c(C(=O)N2CCCC2)c1 |  |
